Here are results for 17 molecules from patent US7238720B2, “Pharmaceutical use of N-carbamoylazole derivatives” (Eisai R & D Management Co. Ltd., priority 2001, dated 2007).

Assay [1] addresses T1, DPP-IV, obtained from porcine kidneys (Sus scrofa, UniProt P22411).
T1 construct: DPP-IV, obtained from porcine kidneys; from tissue; host or cells: porcine kidney
The assay is described as follows: Measurement of DPPIV inhibiting effects (Gly-Pro-p-nitroanilide, absorbance at 405 nm). The class given is biochemical. Conditions: porcine kidney DPP-IV 10 mU/mL, 20 min preincubation, Gly-Pro-p-nitroanilide 0.33 mM, pH 7.4. As to the method:
Measurement of DPPIV Inhibiting Effects
DPP-IV, obtained from porcine kidneys, was dissolved in a reaction buffer solution (50 mM Tris-HCl, pH 7.4, 0.1% BSA) such that the concentration of DPP-IV was at 10 mU/mL. This solution (110 μl) was placed into test tubes, to which compounds to be tested were further added at a quantity of 15 μl and incubated at room temperature for 20 minutes. Twenty-five microliters of a solution in which Gly-Pro-p-nitroanilide was dissolved at 2 mM was added (final concentration, 0.33 mM) to start the enzymatic reaction. The reaction time was 20 minutes. The reaction was stopped by the addition of 25 μl of 1 N phosphoric acid.

Assay [2] concerns male C57BL/6N mice. The experiment in a line: Glucose-tolerance improving effects in normal mice, Experiments 1 and 2 (compound given orally mixed with glucose). The class given is in vivo. To be noted: for Blood Glucose, At Indicated Times (min.) After Oral Administration: mean ± standard error. The procedure:
(§1) Test for Identifying Glucose-Tolerance Improving Effects
(§2) Effects on Glucose-Tolerance Ability of Normal Mice
(§3) Animals: Five or six male C57BL/6N mice per group (purchased from Charles River Japan, Inc.).
Compounds to be tested were suspended in a 0.5% aqueous solution of methylcellulose and mixed with an equal volume of a glucose solution, and administered orally at a volume of 10 ml/kg at doses indicated in Tables below. Vehicle control groups received orally a mixture of a 0.5% aqueous solution of methylcellulose and an equal volume of a glucose solution at a volume of 10 ml/kg. Glucose was given at a dose of 2 g/kg.
The blood was drawn from the tail vein immediately before and at 30, 60, and 120 minutes after the administration of mixed solutions of the compounds to be tested and glucose, and subjected to the measurement of the blood glucose value.
(§4) The tail vein of the mice was injured, without anesthesia, with a razor to cause slight bleeding. Ten microliters of blood was collected, and mixed immediately with […] of 0.6 M perchloric acid. The glucose in supernatants obtained by centrifugation (1500 g, 10 min. 4° C., in a cooled centrifuge GS-6KR from Beckman Ltd.) was determined employing a Glucose CII Test Wako kit (Wako Pure Chemical Industries, Ltd.).
(§5) The results are expressed by mean value±standard error.

Assay [3] has as its system male C57BL/6N mice. The assay is described as follows: Glucose-tolerance improving effects in normal mice, Experiment 3 (compound given orally 30 minutes before glucose). The class given is in vivo. Conditions: for Blood Glucose, At Indicated Times After Glucose-Solution Administration (min.): 1 mg/kg oral 30 min before glucose 2 g/kg, mean ± standard error. As to the method: as §1, §2, §3
The suspension of the compound to be tested and 0.5% methylcellulose solution which was the vehicle control group were administered orally at a volume of 10 ml/kg, and at 30 minutes after administration, a glucose solution was administered orally at a volume of 10 ml/kg. Glucose was given at a dose of 2 g/kg.
The blood was drawn from the tail vein immediately before the administration of the compound to be tested, and immediately before and at 30, 60, and 120 minutes after the administration of the glucose solution, and subjected to the measurement of the blood glucose value.
as §4, §5

T1 sequence (P22411 whole entry): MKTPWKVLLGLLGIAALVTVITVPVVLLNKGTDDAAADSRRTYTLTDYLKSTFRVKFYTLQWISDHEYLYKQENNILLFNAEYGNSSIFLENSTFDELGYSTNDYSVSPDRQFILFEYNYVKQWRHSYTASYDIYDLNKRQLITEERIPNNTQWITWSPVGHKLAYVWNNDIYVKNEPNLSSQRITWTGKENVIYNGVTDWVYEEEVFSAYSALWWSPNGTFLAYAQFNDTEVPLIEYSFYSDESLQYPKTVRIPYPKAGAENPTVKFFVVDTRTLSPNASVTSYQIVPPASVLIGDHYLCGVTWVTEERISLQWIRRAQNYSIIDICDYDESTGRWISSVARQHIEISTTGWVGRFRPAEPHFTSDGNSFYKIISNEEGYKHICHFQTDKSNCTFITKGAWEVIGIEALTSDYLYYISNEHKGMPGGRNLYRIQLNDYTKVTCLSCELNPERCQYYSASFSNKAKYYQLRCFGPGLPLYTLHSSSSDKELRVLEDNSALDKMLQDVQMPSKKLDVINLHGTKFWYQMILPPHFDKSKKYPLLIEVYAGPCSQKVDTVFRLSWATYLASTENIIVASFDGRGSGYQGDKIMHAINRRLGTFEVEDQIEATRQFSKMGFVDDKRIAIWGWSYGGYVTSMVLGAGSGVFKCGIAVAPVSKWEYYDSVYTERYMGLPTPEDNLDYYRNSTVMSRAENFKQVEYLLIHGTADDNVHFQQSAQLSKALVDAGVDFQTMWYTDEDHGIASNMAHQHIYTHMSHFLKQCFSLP

The IC50 is the concentration needed to halve the response being measured. Low readings indicate greater potency, high ones weaker potency. Take `CN(C)C(=O)n1cnc(S(=O)(=O)Cc2ccccc2)n1` [Example 2, 3-Benzylsulfonyl-1-dimethylcarbamoyl-1H-1,2,4-triazole]: the IC50 in assay [1] was 1390 nM. Besides, the “Blood Glucose, At Indicated Times (min.) After Oral Administration” value in assay [2] (Experiment 1, 30 mg/kg oral with glucose 2 g/kg, 0 min (immediately before administration)) worked out at 75.8 ± 1.5 mg/dL; in assay [2] (Experiment 1, 30 mg/kg oral with glucose 2 g/kg, 30 min), 159.8 ± 5.5 mg/dL; in assay [2] (Experiment 1, 30 mg/kg oral with glucose 2 g/kg, 60 min), 133.8 ± 4.1 mg/dL; in assay [2] (Experiment 1, 30 mg/kg oral with glucose 2 g/kg, 120 min), 109.6 ± 3.0 mg/dL.

Turning to `CN(C)C(=O)n1cnc(S(=O)(=O)[C@@H]2C[C@@H]3CC[C@H]2C3)n1` (relative stereo) [Example 13, 3-(Endo-norbornan-2-yl)sulfonyl-1-dimethylcarbamoyl-1H-1,2,4-triazole], the IC50 in assay [1] was 164 nM. Also, the “Blood Glucose, At Indicated Times (min.) After Oral Administration” value turned out to be 73.9 ± 3.0 mg/dL in assay [2] (Experiment 2, 3 mg/kg oral with glucose 2 g/kg, 0 min (immediately before administration)); 177.7 ± 6.3 mg/dL in assay [2] (Experiment 2, 3 mg/kg oral with glucose 2 g/kg, 30 min); 139.7 ± 6.7 mg/dL in assay [2] (Experiment 2, 3 mg/kg oral with glucose 2 g/kg, 60 min); 92.5 ± 2.4 mg/dL in assay [2] (Experiment 2, 3 mg/kg oral with glucose 2 g/kg, 120 min); 73.3 ± 2.8 mg/dL in assay [2] (Experiment 2, 10 mg/kg oral with glucose 2 g/kg, 0 min (immediately before administration)); 159.9 ± 9.9 mg/dL in assay [2] (Experiment 2, 10 mg/kg oral with glucose 2 g/kg, 30 min). The “Blood Glucose, At Indicated Times (min.) After Oral Administration” value came to 129.3 ± 9.1 mg/dL in assay [2] (Experiment 2, 10 mg/kg oral with glucose 2 g/kg, 60 min); 90.6 ± 3.2 mg/dL in assay [2] (Experiment 2, 10 mg/kg oral with glucose 2 g/kg, 120 min); 70.4 ± 4.0 mg/dL in assay [2] (Experiment 2, 30 mg/kg oral with glucose 2 g/kg, 0 min (immediately before administration)); 148.7 ± 5.1 mg/dL in assay [2] (Experiment 2, 30 mg/kg oral with glucose 2 g/kg, 30 min); 127.3 ± 5.9 mg/dL in assay [2] (Experiment 2, 30 mg/kg oral with glucose 2 g/kg, 60 min); 93.7 ± 2.3 mg/dL in assay [2] (Experiment 2, 30 mg/kg oral with glucose 2 g/kg, 120 min). In addition, the “Blood Glucose, At Indicated Times (min.) After Oral Administration” value is 72.0 ± 2.1 mg/dL in assay [2] (Experiment 2, 100 mg/kg oral with glucose 2 g/kg, 0 min (immediately before administration)); 147.1 ± 16.2 mg/dL in assay [2] (Experiment 2, 100 mg/kg oral with glucose 2 g/kg, 30 min); 133.7 ± 8.8 mg/dL in assay [2] (Experiment 2, 100 mg/kg oral with glucose 2 g/kg, 60 min); 106.2 ± 5.4 mg/dL in assay [2] (Experiment 2, 100 mg/kg oral with glucose 2 g/kg, 120 min). In assay [2] (oral administration, Experiments 1 and 2, result in words), the “effect on glucose-tolerance ability of normal mice” value is given as “distinct effect”.

Turning to `CN(C)C(=O)n1cnc(S(=O)(=O)Cc2ccc(C(C)(C)C)cc2)n1` [Example 5, 3-(4-Tert-butylbenzyl)sulfonyl-1-dimethylcarbamoyl-1H-1,2,4-triazole], in assay [1], half-maximal inhibition (IC50) required 1350 nM.

Turning to `CN(C)C(=O)n1cnc(S(=O)(=O)C2CCOc3ccccc32)n1` (centres unmarked) [Example 11, 3-(Chroman-4-yl)sulfonyl-1-dimethylcarbamoyl-1H-1,2,4-triazole], in assay [1], the IC50 was 216 nM.

Consider `CN(C)C(=O)n1cnc(S(=O)(=O)CC(C)(C)C)n1` [Example 21, 3-(2-Dimethylpropyl)sulfonyl-1-dimethylcarbamoyl-1H-1,2,4-triazole], for which it took 688 nM to reach half-maximal inhibition in assay [1] (IC50).

For the molecule `Cc1ccc(S(=O)(=O)c2ccn(C(=O)N(C)C)n2)cc1` [Example 59, 3-(4-Toluenesulfonyl)-1-dimethylcarbamoyl-1H-pyrazole], the IC50 in assay [1] was 4220 nM.

Regarding `CCCN(C)C(=O)n1cnc(S(=O)(=O)[C@@H]2C[C@@H]3CC[C@H]2C3)n1` (relative stereo) [Example 28, 3-(Endo-norbornan-2-yl)sulfonyl-1-(N-methyl-N-propylcarbamoyl)-1H-1,2,4-triazole], the midpoint of inhibition in assay [1], the IC50, lay at 58.4 nM.

For `COCCOc1cccc(C)c1S(=O)(=O)c1ncn(C(=O)N(C)C)n1` [Example 43, 3-[2-(2-Methoxyethyl)oxy-6-methylphenyl]sulfonyl-1-dimethylcarbamoyl-1H-1,2,4-triazole], in assay [1], the concentration for half-maximal inhibition (IC50) worked out at 4.34 nM. In addition, the “Blood Glucose, At Indicated Times After Glucose-Solution Administration (min.)” value in assay [3] (0 min (immediately before glucose)) is 89.8 ± 2.1 mg/dL; in assay [3] (30 min), 173.8 ± 5.1 mg/dL; in assay [3] (60 min), 170.8 ± 5.7 mg/dL; in assay [3] (120 min), 112.1 ± 2.5 mg/dL; in assay [3] (−30 min (immediately before compound administration)), 70.8 ± 1.5 mg/dL. For the same molecule, the “effect on glucose-tolerance ability of normal mice” value in assay [3] (oral administration, result in words) is “distinct effect”.

`CCCN(C)C(=O)n1cnc(S(=O)(=O)c2c(C)cc(C)cc2C)n1` [Example 37, 3-(2,4,6-Trimethylphenyl)sulfonyl-1-(N-methyl-N-propylcarbamoyl)-1H-1,2,4-triazole] gave an IC50 in assay [1] of 10 nM.

In assay [1], `Cc1cc(C)c(S(=O)(=O)c2ncn(C(=O)N(C)c3ccccc3)n2)c(C)c1` [Example 35, 3-(2,4,6-Trimethylphenyl)sulfonyl-1-(N-methyl-N-phenylcarbamoyl)-1H-1,2,4-triazole] registered an IC50 of 1510 nM.

`Cc1cc(C)c([S+]([O-])c2ncn(C(=O)N(C)C)n2)c(C)c1` (centres unmarked) [Example 39, 3-(2,4,6-Trimethylphenyl)sulfinyl-1-dimethylcarbamoyl-1H-1,2,4-triazole] came in with a half-maximal inhibitory concentration (IC50) in assay [1] of 22.8 nM.

In turn, `CC(C)CN(C)C(=O)n1cnc(S(=O)(=O)[C@@H]2C[C@@H]3CC[C@H]2C3)n1` (relative stereo) [Example 30, 3-(Endo-norbornan-2-yl)sulfonyl-1-(N-methyl-N-isobutylcarbamoyl)-1H-1,2,4-triazole] showed an IC50 in assay [1] of 266 nM.

Molecule `CN(C)C(=O)n1cnc(S(=O)(=O)c2cccc(Br)n2)n1` [Example 53, 3-(6-Bromo-2-pyridyl)sulfonyl-1-dimethylcarbamoyl-1H-1,2,4-triazole] showed an IC50 in assay [1] of 351 nM.

As to `CN(C)C(=O)n1cnc(S(=O)(=O)Cc2ccc(F)cc2)n1` [Example 4, 3-(4-Fluorobenzyl)sulfonyl-1-dimethylcarbamoyl-1H-1,2,4-triazole], the concentration for half-maximal inhibition (IC50) in assay [1] is 657 nM.

Consider `CN(C)C(=O)n1cnc(SC(c2ccccc2)c2ccccc2)n1` [Example 6, 3-(Diphenylmethyl)thio-1-dimethylcarbamoyl-1H-1,2,4-triazole], for which the IC50 in assay [1] came out at 3460 nM.

Consider `CC(C)N(C)C(=O)n1cnc(S(=O)(=O)[C@@H]2C[C@@H]3CC[C@H]2C3)n1` (relative stereo) [Example 29, 3-(Endo-norbornan-2-yl)sulfonyl-1-(N-methyl-N-isopropylcarbamoyl)-1H-1,2,4-triazole], for which the midpoint of inhibition in assay [1], the IC50, lay at 8.88 nM.

In assay [1], `O=C(N1CCCC1)n1cnc(S(=O)(=O)[C@@H]2C[C@@H]3CC[C@H]2C3)n1` (relative stereo) [Example 26, 3-(Endo-norbornan-2-yl)sulfonyl-1-(pyrrolidin-1-yl)carbonyl-1H-1,2,4-triazole] returned a half-maximal inhibitory concentration (IC50) of 244 nM.
